As usually defined, the melting point is the temperature of the solid-liquid transition.

The record followed here is patent US7098217B2, “3,7-dihydro-purine-2,6-dione derivatives as CRF receptor ligands” (Bristol-Myers Squibb Company, priority 2001, dated 2006).

On to `CCC(CC)n1cnc2c1c(=O)n(C)c(=O)n2-c1ccc(Cl)cc1Cl` [Example 5, 3-(2,4-dichlorophenyl)-1-methyl-7-(3-pentyl)-3,7-dihydro-1H-purine-2,6-dione], for which the melting point lay in the range of 158 to 159 °C.
Regarding `C=CCC(CC=C)n1c(CC)nc2c1c(=O)n(C)c(=O)n2-c1ccc(Cl)cc1Cl` [Example 4, 7-(1-allyl-3-butenyl)-3-(2,4-dichlorophenyl)-8-ethyl-1-methyl-3,7-dihydro-1H-purine-2,6-dione], the melting point lay in the range of 145 to 146 °C.
For the compound `CCCC(CCC)n1c(CC)nc2c1c(=O)n(C)c(=O)n2-c1ccc(Cl)cc1Cl` [Example 2, 3-(2,4-dichlorophenyl)-8-ethyl-7-(4-heptyl)-1-methyl-3,7-dihydro-1H-purine-2,6-dione], the melting point is 185 to 186 °C.
In the case of `CCc1nc2c(c(=O)n(C)c(=O)n2-c2ccc(Cl)cc2Cl)n1Cc1ccc(OC)cc1` [Example 7, 3-(2,4-dichlorophenyl)-8-ethyl-7-(4-methoxybenzyl)-1-methyl-3,7-dihydro-1H-purine-2,6-dione], the melting point lay in the range of 209 to 210 °C.
In the case of `CCc1nc2c(c(=O)n(C)c(=O)n2-c2ccc(Cl)cc2Cl)n1C(CC)CC` [Example 1, 3-(2,4-dichlorophenyl)-8-ethyl-1-methyl-7-(3-pentyl)-3,7-dihydro-1H-purine-2,6-dione], the melting point is 186 to 187 °C.
Regarding `CCCC(CCC)n1c(CC)nc2c1c(=O)n(C)c(=O)n2-c1c(OC)ccnc1C` [Example 117, 8-ethyl-7-(4-heptyl)-3-(4-methoxy-2-methylpyrid-3-yl)-1-methyl-3,7-dihydro-1H-purine-2,6-dione], the melting point lay in the range of 124 to 126 °C.
On to `CCCC(CCC)n1c(CC)nc2c1c(=O)n(C)c(=O)n2-c1c(C)cc(C)cc1C` [Example 79, 8-ethyl-7-(4-heptyl)-1-methyl-3-(2,4,6-trimethylphenyl)-3,7-dihydro-1H-purine-2,6-dione], for which the melting point was 195 to 195.5 °C.
